Values joined by “and” are separate entries in the source; they are usually repeats but may differ in a detail not shown here. Equal entries are not always repeated. Where two headings read alike, the source gives them in different places.
Columns and labels:
[1] = system: LPS-induced cytokine production; conditions: human peripheral blood; cited from earlier work
[2] = Text: All serious and non-serious adverse events were reported to study personnel as per local regulatory requirements. Reportable adverse events included serious adverse events, adverse events resulting in study medication discontinuation, and adverse events assessed as possibly related to study medication.
Because many patients who would ordinarily have been hospitalized were prevented from admission due to hospital over-capacity during peak waves, the composite endpoint addresses both hospitalization and a proxy for hospitalization, retention in a COVID-19 emergency hospital setting. This region of Brazil implemented hospital-like services in the emergency settings with 50-80 bed units providing services including multiday stays, oxygenation, and mechanical ventilation. […] Key secondary outcomes include viral clearance, time to clinical improvement, number of days with respiratory symptoms, time to hospitalization for any cause or due to COVID-19 progression, all-cause mortality and time to death from any causes, WHO clinical worsening scale score, days in hospital and on ventilator and adverse events, adverse reactions to the study medications, and the proportion of participants who are non-adherent with the study drugs.
The TOGETHER trial is the largest placebo-controlled trial of COVID-19 interventions in the world. It currently evaluates drugs for pre-hospitalization.

[3] = system: COVID-19 (SARS-CoV-2 infection)
[4] = system: LPS- or fecal slurry-induced inflammatory response; conditions: cited from earlier work; for Survival: wildtype mice, LPS, IRE1-mediated inflammation, fecal-induced peritonitis
[5] = system: experimental autoimmune encephalomyelitis (EAE); conditions: cited from earlier work
[6] = system: COVID-19 (SARS-CoV-2 infection); conditions: cited from earlier work
[7] = Together, N = 741, MedDRA body system
[8] = intent to treat analysis of 1649 participants
[9] = pooled, fluvoxamine vs blinded placebo
[10] = two randomized trials pooled, intent to treat

SMILES: COCCCC/C(=N\OCCN)c1ccc(C(F)(F)F)cc1.O=C(O)/C=C\C(=O)O [fluvoxamine, 5-methoxy-4′-(trifluoromethyl)valerophenone-(E)-O-(2-aminoethyl)oxime maleate (1:1)]
- LPS-induced cytokine production by human cells [1]: reduce LPS-induced cytokine production
- Treatment emergent adverse event Grade 1, % ([2]; TOGETHER, fluvoxamine group): (3%)
- Treatment emergent adverse event Grade 1, n/N ([2]; TOGETHER, fluvoxamine group): 20/741
- Treatment emergent adverse event Grade 2, % ([2]; TOGETHER, fluvoxamine group): (10%)
- Treatment emergent adverse event Grade 2, n/N ([2]; TOGETHER, fluvoxamine group): 72/741
- Treatment emergent adverse event Grade 3, % ([2]; TOGETHER, fluvoxamine group): (5%)
- Treatment emergent adverse event Grade 3, n/N ([2]; TOGETHER, fluvoxamine group): 38/741
- Treatment emergent adverse event Grade 4, % ([2]; TOGETHER, fluvoxamine group): (3%)
- Treatment emergent adverse event Grade 4, n/N ([2]; TOGETHER, fluvoxamine group): 21/741
- Treatment emergent adverse event Grade 5, % ([2]; TOGETHER, fluvoxamine group): (2%)
- Treatment emergent adverse event Grade 5, n/N ([2]; TOGETHER, fluvoxamine group): 18/741
- Cardiac disorders, % of AEs [2, 7]: (0.6%)
- Cardiac disorders, number of AEs [2, 7]: 1
- Ear and labyrinth disorders, % of AEs [2, 7]: (0.6%)
- Ear and labyrinth disorders, number of AEs [2, 7]: 1
- Gastrointestinal disorders, % of AEs [2, 7]: (9.2%)
- Gastrointestinal disorders, number of AEs [2, 7]: 16
- Hepatobiliary disorders, % of AEs [2, 7]: (0%)
- Hepatobiliary disorders, number of AEs [2, 7]: 0
- Infections and infestations, % of AEs [2, 7]: (49%)
- Infections and infestations, number of AEs [2, 7]: 85
- Metabolism and nutrition disorders, % of AEs [2, 7]: (2.3%)
- Metabolism and nutrition disorders, number of AEs [2, 7]: 4
- Musculoskeletal and connective tissue disorders, % of AEs [2, 7]: (2.3%)
- Musculoskeletal and connective tissue disorders, number of AEs [2, 7]: 4
- Nervous system disorders, % of AEs [2, 7]: (1.7%)
- Nervous system disorders, number of AEs [2, 7]: 3
- Psychiatric disorders, % of AEs [2, 7]: (2.9%)
- Psychiatric disorders, number of AEs [2, 7]: 5
- Renal and urinary disorders, % of AEs [2, 7]: (0.6%)
- Renal and urinary disorders, number of AEs [2, 7]: 1
- Reproductive system and breast disorders, % of AEs [2, 7]: (0.6%)
- Reproductive system and breast disorders, number of AEs [2, 7]: 1
- Respiratory, thoracic and mediastinal disorders, % of AEs [2, 7]: (6.3%)
- Respiratory, thoracic and mediastinal disorders, number of AEs [2, 7]: 11
- Skin and subcutaneous tissue disorders, % of AEs [2, 7]: (0%)
- Skin and subcutaneous tissue disorders, number of AEs [2, 7]: 0
- Vascular disorders, % of AEs [2, 7]: (1.1%)
- Vascular disorders, number of AEs [2, 7]: 2
- N individual AEs ([2]; Together, N = 741 participants): 174
- Participants who stopped owing to issues of tolerability, No. ([2]; of 741): 84
- Clinical status on 7-point scale, difference between group means vs placebo [3]: −0.22
- Most severe baseline symptom change score, difference between group means vs placebo [3]: 0.3
- 30-d post trial observation events, % ([3]; 30 days after day 15): (1.3) %
- Most severe baseline symptom change score (difference between baseline and final rating) ([3]; day 0 to day 15, 0-10 scale): −5.6
- 30-d post trial observation events, absolute difference vs placebo ([3]; difference in proportions): −0.1
- Absolute difference vs placebo, 7-point scale 0 (none) ([3]; difference in proportions): 8.3
- Absolute difference vs placebo, 7-point scale 1 ([3]; difference in proportions): −2.8
- Absolute difference vs placebo, 7-point scale 3 ([3]; difference in proportions): −4.2
- Absolute difference vs placebo, 7-point scale 5 ([3]; difference in proportions): −1.4
- Absolute difference vs placebo, 7-point scale any nonzero value ([3]; difference in proportions): −8.3
- Clinical status on 7-point scale, mean (SD) ([3]; n = 80): 0
- WHO scale, 0-1 = uninfected or ambulatory, % ([3]; n = 80): (100%)
- WHO scale, 2 = limitation of activities, % ([3]; n = 80): (0%)
- WHO scale, 2 = limitation of activities, No ([3]; n = 80): 0
- WHO scale, 3 = hospitalized, no O2 needed, % ([3]; n = 80): (0%)
- WHO scale, 3 = hospitalized, no O2 needed, No ([3]; n = 80): 0
- WHO scale, 4 = hospitalized, O2 needed, % ([3]; n = 80): (0%)
- WHO scale, 4 = hospitalized, O2 needed, No ([3]; n = 80): 0
- WHO scale, 5 = non-invasive vent or high-flow O2, % ([3]; n = 80): (0%)
- WHO scale, 5 = non-invasive vent or high-flow O2, No ([3]; n = 80): 0
- WHO scale, 6 = ventilator needed, % ([3]; n = 80): (0%)
- WHO scale, 6 = ventilator needed, No ([3]; n = 80): 0
- WHO scale, 7 = ventilator + additional organ support, % ([3]; n = 80): (0%)
- WHO scale, 7 = ventilator + additional organ support, No ([3]; n = 80): 0
- WHO scale, 8 = Death, % ([3]; n = 80): (0%)
- WHO scale, total participants with values >1, % ([3]; n = 80): (0%)
- WHO scale, total participants with values >1, No ([3]; n = 80): 0
- 7-point scale, 1 = O2 sat <92% but no supplemental O2, % ([3]; n = 80, 15 days): (0%)
- 7-point scale, 1 = O2 sat <92% but no supplemental O2, No ([3]; n = 80, 15 days): 0
- 7-point scale, 2 = Above + supplemental O2 needed, % ([3]; n = 80, 15 days): (0%)
- 7-point scale, 2 = Above + supplemental O2 needed, No ([3]; n = 80, 15 days): 0
- 7-point scale, 3 = Above + hospitalization needed, % ([3]; n = 80, 15 days): (0%)
- 7-point scale, 3 = Above + hospitalization needed, No ([3]; n = 80, 15 days): 0
- 7-point scale, 4 = Above + ventilator needed (<3 days), % ([3]; n = 80, 15 days): (0%)
- 7-point scale, 4 = Above + ventilator needed (<3 days), No ([3]; n = 80, 15 days): 0
- 7-point scale, 5 = Above + ventilator needed (≥3 days), % ([3]; n = 80, 15 days): (0%)
- 7-point scale, 5 = Above + ventilator needed (≥3 days), No ([3]; n = 80, 15 days): 0
- 7-point scale, 6 = Death, % ([3]; n = 80, 15 days): (0%)
- 7-point scale, total participants with values >0 (any nonzero value), No ([3]; n = 80, 15 days): 0
- 7-point scale, total participants with values >0, % ([3]; n = 80, 15 days): (0%)
- 30-d post trial observation events (emergency department visit, hospitalization, or both), No. ([3]; of 80, 30 days after day 15): 1
- Effect on endotoxic shock-induced death ([4]; S1R KO animals): no significant effect
- Cytokine levels ([4]; wildtype mice exposed to LPS or fecal slurry): reduced cytokine levels
- Survival [4]: increased survival
- Survival ([4]; listed as FLV): enhanced survival
- Severity of EAE ([5]; rats, also when treatment began 12 days post-induction): reduces the severity
- IFN-γ serum levels ([5]; vs untreated EAE rats): decrease
- IL-4 serum levels ([5]; vs untreated EAE rats): increase
- Incidence of hospitalization ([6]; 50 mg twice daily, 14 days): 0%
- Patients hospitalized, number of 65 ([6]; 14 days): no patients and 0 of 65
- Patients hospitalized, number of 65 ([6]; 14 days, listed as FLV): 0/65
- Persistent residual / ongoing symptoms at 14 days ([6]; Day 14): 0%
- Persons with persistent residual / ongoing symptoms at 14 days, number of 65 ([6]; Day 14): 0/65 and zero
- Persons with persistent residual / ongoing symptoms at 14 days, number of 65 ([6]; Day 14, listed as FLV): 0/65
- reduction in hospitalizations (COVID-19; [8]): Summary of the two randomized clinical trial data demonstrate a 25%
- reduction in progression to severe disease with hypoxia ≤92%, ER visit >6 hour (with hypoxia), or hospitalizations (COVID-19; [8]): reduction in hospitalizations and 36% reduction in progression to severe
- reduction in hospitalizations (COVID-19; intent to treat, vs placebo): 25%
- Number needed to treat (COVID-19; pooled): approximately 20
- Hospitalization, Absolute Risk Reduction (COVID-19; [9]): 3.1%
- Mortality, Absolute Risk Reduction (COVID-19; [9]): 0.9%
- Progression to Severe COVID-19, Absolute Risk Reduction (COVID-19; [9]): 5.4%
- Hospitalization, % (COVID-19; [10]): 9.3%
- Hospitalization, n/N (COVID-19; [10]): (76/821)
- Mortality, % (COVID-19; [10]): 2.1%
- Mortality, n/N (COVID-19; [10]): (17/821)
- Progression to Severe COVID-19 (Hospitalization or ER Visit >6 hr or Hypoxia <92%), % (COVID-19; [10]): 9.6%
- Progression to Severe COVID-19, n/N (COVID-19; [10]): (79/821)
